The values that follow are results of earlier work, collected in patent publication US20080255231A1, “POLYMORPHS OF RIVASTIGMINE HYDROGENTARTRATE” (priority 2007, published 2008).

On to `CCN(C)C(=O)Oc1cccc([C@H](C)N(C)C)c1` [Rivastigmine hydrogentartrate, [3-[α-(Dimethylamino)-ethyl]phenyl]-N-methylethylcarbamate hydrogentartrate], for which the solubility in acetonitrile entry (acetonitrile) is given as “soluble”. Also, the solubility in ethanol result (ethanol) is recorded as “soluble”. The “solubility in ethyl acetate” value (ethyl acetate) is recorded as “very slightly soluble”. In addition, under “n-octanol”, the solubility in n-octanol result was “slightly soluble”. Moreover, the solubility in water entry (water) is reported as “very soluble”.
